What was measured:
[1] = target: T1, amyloid plaques (Homo sapiens, UniProt P05067); assay: Ki values of Phen-Nap, Nap-Phen derivatives (Ki binding data)
T1 construct: fibrillary Aβ plaques consisting predominately of aggregates of Aβ40 and Aβ42 peptides

[2] = Log P (octanol/Na2HPO4 buffer pH 7.4); format: physicochemical
[3] = Biodistribution in ICR mice after an iv injection; format: in vivo
Summary of the method: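 Mice received an iv injection of the [^18F] tracer in 1%, 3% or 5% EtOH/0.1% BSA in water, depending on tracer. Organ radioactivity is given as % dose/organ and % dose/g, mean of 3 mice ±SD.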

[4] = Blood, 2 min after iv injection
[5] = Blood, 30 min after iv injection
[6] = Bone, 30 min after iv injection
[7] = Brain, 2 min after iv injection
[8] = Brain, 30 min after iv injection
[9] = Heart, 2 min after iv injection
[10] = Heart, 30 min after iv injection
[11] = Kidney, 2 min after iv injection
[12] = Kidney, 30 min after iv injection
[13] = Kidney, 1 hr after iv injection
[14] = Kidney, 2 hr after iv injection
[15] = Liver, 2 min after iv injection
[16] = Liver, 30 min after iv injection
[17] = Lung, 30 min after iv injection
[18] = Muscle, 2 min after iv injection
[19] = Muscle, 30 min after iv injection
[20] = Muscle, 1 hr after iv injection
[21] = Muscle, 2 hr after iv injection
[22] = Skin, 30 min after iv injection
[23] = Spleen, 2 min after iv injection
[24] = Spleen, 30 min after iv injection
[25] = Spleen, 1 hr after iv injection
[26] = Spleen, 2 hr after iv injection

T1 sequence (P05067 672-713 limits assumed): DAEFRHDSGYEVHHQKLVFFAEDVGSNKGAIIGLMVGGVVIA
T1 sequence (P05067 672-711 limits assumed): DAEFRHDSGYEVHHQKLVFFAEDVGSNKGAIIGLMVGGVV

With `CNc1ccc(-c2ccc3cc(OCCOCCOCCF)ccc3c2)cc1` [Compound 13a, 4-(6-(2-(2-(2-fluoroethoxy)ethoxy)ethoxy)naphthalen-2-yl)-N-methylbenzenamine] as the compound, how does the Ki [1] read?
The Ki was 1.6 nM.

And the logP ([2]; pH 7.4)?
Its logP is 3.22.

For `CNc1ccc(-c2ccc3nc(OCCOCCOCC[18F])ccc3c2)cc1` [[^18F]34a], which “% dose/g” value [3, 4] is on record?
The value was 2.50 ± 0.14 % dose/g.

What about the “% dose/organ” value [3, 4] of the same compound?
Its value is 4.29 ± 0.20 % dose/organ.

And the “% dose/g” value [3, 5]?
The value was 1.49 ± 0.15 % dose/g.

And the “% dose/organ” value [3, 5]?
The value was 2.51 ± 0.18 % dose/organ.

What about the “% dose/g” value ([3]; Blood, 1 hr after iv injection) of the same compound?
The value was 1.61 ± 0.12 % dose/g.

What about the “% dose/organ” value ([3]; Blood, 1 hr after iv injection) of the same compound?
Its value is 2.87 ± 0.20 % dose/organ.

What about the “% dose/g” value ([3]; Blood, 2 hr after iv injection) of the same compound?
The value was 1.52 ± 0.23 % dose/g.

And the “% dose/organ” value ([3]; Blood, 2 hr after iv injection)?
The value was 2.58 ± 0.26 % dose/organ.

What about the “% dose/g” value ([3]; Bone, 2 min after iv injection) of the same compound?
Its value is 1.11 ± 0.11 % dose/g.

And the “% dose/organ” value ([3]; Bone, 2 min after iv injection)?
The value was 3.82 ± 0.33 % dose/organ.

What about the “% dose/g” value [3, 6] of the same compound?
Its value is 1.16 ± 0.20 % dose/g.

What about the “% dose/organ” value [3, 6] of the same compound?
Its value is 3.87 ± 0.43 % dose/organ.

What about the “% dose/g” value ([3]; Bone, 1 hr after iv injection) of the same compound?
The value was 1.49 ± 0.18 % dose/g.

And the “% dose/organ” value ([3]; Bone, 1 hr after iv injection)?
The value was 5.31 ± 0.31 % dose/organ.

What about the “% dose/g” value ([3]; Bone, 2 hr after iv injection) of the same compound?
The value was 2.33 ± 0.43 % dose/g.

What about the “% dose/organ” value ([3]; Bone, 2 hr after iv injection) of the same compound?
The value was 7.84 ± 0.91 % dose/organ.

And the “% dose/g” value [3, 7]?
Its value is 10.2 ± 1.09 % dose/g.

What about the “% dose/organ” value [3, 7] of the same compound?
Its value is 4.61 ± 0.60 % dose/organ.

And the “% dose/g” value [3, 8]?
Its value is 2.23 ± 0.29 % dose/g.

What about the “% dose/organ” value [3, 8] of the same compound?
Its value is 1.02 ± 0.11 % dose/organ.

And the “% dose/g” value ([3]; Brain, 1 hr after iv injection)?
The value was 1.88 ± 0.20 % dose/g.

What about the “% dose/organ” value ([3]; Brain, 1 hr after iv injection) of the same compound?
Its value is 0.90 ± 0.08 % dose/organ.

And the “% dose/g” value ([3]; Brain, 2 hr after iv injection)?
The value was 1.90 ± 0.25 % dose/g.

And the “% dose/organ” value ([3]; Brain, 2 hr after iv injection)?
Its value is 0.85 ± 0.12 % dose/organ.

What about the “% dose/g” value [3, 9] of the same compound?
Its value is 10.7 ± 2.06 % dose/g.

And the “% dose/organ” value [3, 9]?
The value was 1.26 ± 0.20 % dose/organ.

And the “% dose/g” value [3, 10]?
The value was 2.86 ± 0.30 % dose/g.

And the “% dose/organ” value [3, 10]?
The value was 0.36 ± 0.05 % dose/organ.

What about the “% dose/g” value ([3]; Heart, 1 hr after iv injection) of the same compound?
The value was 2.20 ± 0.31 % dose/g.

What about the “% dose/organ” value ([3]; Heart, 1 hr after iv injection) of the same compound?
Its value is 0.29 ± 0.03 % dose/organ.

And the “% dose/g” value ([3]; Heart, 2 hr after iv injection)?
Its value is 1.71 ± 0.13 % dose/g.

What about the “% dose/organ” value ([3]; Heart, 2 hr after iv injection) of the same compound?
Its value is 0.19 ± 0.01 % dose/organ.

What about the “% dose/g” value [3, 11] of the same compound?
Its value is 13.6 ± 0.10 % dose/g.

And the “% dose/organ” value [3, 11]?
The value was 5.22 ± 0.33 % dose/organ.

And the “% dose/g” value [3, 12]?
Its value is 4.41 ± 0.49 % dose/g.

What about the “% dose/organ” value [3, 12] of the same compound?
The value was 1.69 ± 0.22 % dose/organ.

And the “% dose/g” value [3, 13]?
The value was 3.57 ± 0.64 % dose/g.

What about the “% dose/organ” value [3, 13] of the same compound?
Its value is 1.36 ± 0.09 % dose/organ.

What about the “% dose/g” value [3, 14] of the same compound?
The value was 2.47 ± 0.45 % dose/g.

And the “% dose/organ” value [3, 14]?
The value was 1.00 ± 0.24 % dose/organ.

What about the “% dose/g” value [3, 15] of the same compound?
The value was 18.2 ± 0.95 % dose/g.

What about the “% dose/organ” value [3, 15] of the same compound?
The value was 21.2 ± 0.76 % dose/organ.

And the “% dose/g” value [3, 16]?
Its value is 11.9 ± 1.63 % dose/g.

And the “% dose/organ” value [3, 16]?
The value was 14.2 ± 0.91 % dose/organ.

What about the “% dose/g” value ([3]; Liver, 1 hr after iv injection) of the same compound?
Its value is 8.99 ± 1.19 % dose/g.

What about the “% dose/organ” value ([3]; Liver, 1 hr after iv injection) of the same compound?
The value was 11.8 ± 0.65 % dose/organ.

And the “% dose/g” value ([3]; Liver, 2 hr after iv injection)?
Its value is 6.72 ± 0.58 % dose/g.

What about the “% dose/organ” value ([3]; Liver, 2 hr after iv injection) of the same compound?
Its value is 8.29 ± 1.09 % dose/organ.

What about the “% dose/g” value ([3]; Lung, 2 min after iv injection) of the same compound?
The value was 6.83 ± 0.07 % dose/g.

What about the “% dose/organ” value ([3]; Lung, 2 min after iv injection) of the same compound?
The value was 1.34 ± 0.03 % dose/organ.

What about the “% dose/g” value [3, 17] of the same compound?
The value was 2.87 ± 0.32 % dose/g.

What about the “% dose/organ” value [3, 17] of the same compound?
The value was 0.54 ± 0.06 % dose/organ.

What about the “% dose/g” value ([3]; Lung, 1 hr after iv injection) of the same compound?
The value was 2.42 ± 0.34 % dose/g.

What about the “% dose/organ” value ([3]; Lung, 1 hr after iv injection) of the same compound?
The value was 0.48 ± 0.06 % dose/organ.

And the “% dose/g” value ([3]; Lung, 2 hr after iv injection)?
The value was 1.96 ± 0.29 % dose/g.

What about the “% dose/organ” value ([3]; Lung, 2 hr after iv injection) of the same compound?
Its value is 0.36 ± 0.05 % dose/organ.

What about the “% dose/g” value [3, 18] of the same compound?
The value was 0.65 ± 0.01 % dose/g.

What about the “% dose/organ” value [3, 18] of the same compound?
Its value is 6.40 ± 0.14 % dose/organ.

What about the “% dose/g” value [3, 19] of the same compound?
The value was 1.50 ± 0.21 % dose/g.

What about the “% dose/organ” value [3, 19] of the same compound?
Its value is 14.5 ± 2.59 % dose/organ.

And the “% dose/g” value [3, 20]?
Its value is 1.33 ± 0.17 % dose/g.

What about the “% dose/organ” value [3, 20] of the same compound?
Its value is 13.5 ± 0.83 % dose/organ.

What about the “% dose/g” value [3, 21] of the same compound?
The value was 0.98 ± 0.08 % dose/g.

What about the “% dose/organ” value [3, 21] of the same compound?
The value was 9.55 ± 0.31 % dose/organ.

What about the “% dose/g” value ([3]; Skin, 2 min after iv injection) of the same compound?
The value was 0.58 ± 0.07 % dose/g.

What about the “% dose/organ” value ([3]; Skin, 2 min after iv injection) of the same compound?
The value was 2.13 ± 0.27 % dose/organ.

And the “% dose/g” value [3, 22]?
The value was 1.03 ± 0.12 % dose/g.

What about the “% dose/organ” value [3, 22] of the same compound?
Its value is 3.70 ± 0.28 % dose/organ.

What about the “% dose/g” value ([3]; Skin, 1 hr after iv injection) of the same compound?
The value was 1.47 ± 0.12 % dose/g.

What about the “% dose/organ” value ([3]; Skin, 1 hr after iv injection) of the same compound?
Its value is 5.67 ± 0.85 % dose/organ.

What about the “% dose/g” value ([3]; Skin, 2 hr after iv injection) of the same compound?
Its value is 1.12 ± 0.05 % dose/g.

And the “% dose/organ” value ([3]; Skin, 2 hr after iv injection)?
The value was 4.12 ± 0.12 % dose/organ.

And the “% dose/g” value [3, 23]?
Its value is 4.11 ± 1.02 % dose/g.

And the “% dose/organ” value [3, 23]?
The value was 0.47 ± 0.08 % dose/organ.

What about the “% dose/g” value [3, 24] of the same compound?
The value was 2.16 ± 0.05 % dose/g.

And the “% dose/organ” value [3, 24]?
Its value is 0.21 ± 0.00 % dose/organ.

What about the “% dose/g” value [3, 25] of the same compound?
Its value is 1.89 ± 0.27 % dose/g.

And the “% dose/organ” value [3, 25]?
Its value is 0.17 ± 0.01 % dose/organ.

And the “% dose/g” value [3, 26]?
The value was 1.48 ± 0.20 % dose/g.

What about the “% dose/organ” value [3, 26] of the same compound?
Its value is 0.14 ± 0.02 % dose/organ.

And the “Log P” value ([2]; octanol/0.05 M Na2HPO4 buffer (pH 7.4))?
Its value is 3.23.

— US20100215579A1, “PHEN-NAPHTHALENE AND PHEN-QUINOLINE DERIVATIVES AND THEIR USE FOR BINDING AND IMAGING AMYLOID PLAQUES” (The Trustees of the University of Pennsylvania, priority 2007, published 2010)
